# Assays:
# [1] = molecular target: His-tagged KRAS G12D protein (Homo sapiens, UniProt P01116, G12D); test: KRAS G12D TR-FRET Assay; type: binding
# In short: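 His-KRAS G12D (20 nM) was preincubated with titrated compound for 30 min at RT in HEPES pH 7.4 buffer with MgCl2, 10 μM GDP. Biotin-KRPep-2d (20 nM) was then added for 1 h, followed by Eu-anti-His/streptavidin-d2 for 1 h. The 665/615 nm TR-FRET ratio was fitted 4-parameter to give IC50.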
# [2] = tested on: Phosphorylation of ERK1/2 in AsPC-1 cells; test: Phospho-ERK1/2 MSD Assay; type: cell-based; conditions: Homo sapiens, ASPC1, 2 h, read-out: 2 h p-ERK (AsPC-1 cells), IC50, AsPC-1 cells, 2 h compound treatment
# In short: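 Phospho-ERK1/2 was quantified by MSD whole-cell lysate immunoassay in RIPA lysates made with protease/phosphatase inhibitors. A 4-parameter logistic model gave IC50.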
# [3] = molecular target: GDP-bound KRAS protein (aa 1-169), containing both G12D and C118A amino acid substitutions (Homo sapiens, UniProt P01116, C118A/G12D); test: KRAS G12D Coupled Nucleotide Exchange Assay; type: biochemical
# Protocol: KRAS G12D Coupled Nucleotide Exchange Assay
# Following compound pre-incubation, purified SOS protein (aa 564-1049) and GTP (Roche 10106399001) were added to the assay wells and incubated for an additional 30 min. […] The assay plates were then read on a PerkinElmer EnVision Multilabel Reader, using AlphaScreen® technology, and data were analyzed using a 4-parameter logistic model to calculate IC50 values.
# Sequence of His-tagged KRAS G12D protein (P01116 1-188 isoform P01116-2 G12D): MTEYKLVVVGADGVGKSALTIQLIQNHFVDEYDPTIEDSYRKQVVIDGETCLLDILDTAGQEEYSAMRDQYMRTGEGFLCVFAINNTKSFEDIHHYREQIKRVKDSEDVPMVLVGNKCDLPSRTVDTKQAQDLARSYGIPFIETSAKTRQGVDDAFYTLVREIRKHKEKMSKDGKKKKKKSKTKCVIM
# Sequence of GDP-bound KRAS protein (aa 1-169), containing both G12D and C118A amino acid substitutions (P01116 1-169 isoform P01116-2 G12D/C118A): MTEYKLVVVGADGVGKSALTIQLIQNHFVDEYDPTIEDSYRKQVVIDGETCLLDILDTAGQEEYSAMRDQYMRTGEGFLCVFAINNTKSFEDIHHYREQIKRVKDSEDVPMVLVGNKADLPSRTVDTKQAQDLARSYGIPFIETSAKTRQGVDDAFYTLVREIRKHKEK
Compound,IC50 [1] [nM],IC50 [2] [nM],IC50 [3] [nM]
"CCc1c(F)ccc2cc(O)cc(-c3ccc4c(N5CCCC6(CNC(=O)C6)C5)nc(OC[C@@]56CCCN5C[C@H](F)C6)nc4c3F)c12 (stereo partly drawn) [Example 53, 7-(7-(8-Ethyl-7-fluoro-3-hydroxynaphthalen-1-yl)-8-fluoro-2-(((2R,7aS)-2-fluorotetrahydro-1H-pyrrolizin-7a(5H)-yl)methoxy)quinazolin-4-yl)-2,7-diazaspiro[4.5]decan-3-one]",3,251,7
"CCc1c(F)ccc2cc(O)cc(-c3ccc4c(N5CCCC6(CNC(=O)O6)C5)nc(OC[C@@]56CCCN5C[C@H](F)C6)nc4c3F)c12 (stereo partly drawn) [Example 54, 7-(7-(8-Ethyl-7-fluoro-3-hydroxynaphthalen-1-yl)-8-fluoro-2-(((2R,7aS)-2-fluorotetrahydro-1H-pyrrolizin-7a(5H)-yl)methoxy)quinazolin-4-yl)-1-oxa-3,7-diazaspiro[4.5]decan-2-one]",3,23,4
"C[C@@]1(O)CCCN(c2nc(OC[C@@]34CCCN3C[C@H](F)C4)nc3c(F)c(-c4cc(N)cc(Cl)c4C(F)(F)F)ccc23)C1 [Example 60, (R)-1-(7-(5-Amino-3-chloro-2-(trifluoromethyl)phenyl)-8-fluoro-2-(((2R,7aS)-2-fluorotetrahydro-1H-pyrrolizin-7a(5H)-yl)methoxy)quinazolin-4-yl)-3-methylpiperidin-3-ol]",15,1170,12
"CCc1c(F)ccc2cc(N)cc(-c3c(F)cc4c(N5CCCC(O)(C(F)F)C5)nc(OC[C@@]56CCCN5C[C@H](F)C6)nc4c3F)c12 (stereo partly drawn) [Example 68, 1-(7-(3-Amino-8-ethyl-7-fluoronaphthalen-1-yl)-6,8-difluoro-2-(((2R,7aS)-2-fluorotetrahydro-1H-pyrrolizin-7a(5H)-yl)methoxy)quinazolin-4-yl)-3-(difluoromethyl)piperidin-3-ol]",436,1930,23
"C#Cc1c(F)ccc2cc(N)cc(-c3c(F)cc4c(N5CCCC6(CNC(=O)O6)C5)nc(OC[C@@]56CCCN5C[C@H](F)C6)nc4c3F)c12 (stereo partly drawn) [Example 69, 7-(7-(3-Amino-8-ethynyl-7-fluoronaphthalen-1-yl)-6,8-difluoro-2-(((2R,7aS)-2-fluorotetrahydro-1H-pyrrolizin-7a(5H)-yl)methoxy)quinazolin-4-yl)-1-oxa-3,7-diazaspiro[4.5]decan-2-one]",11,175,5
"C#Cc1c(F)ccc2cc(N)cc(-c3c(F)cc4c(N5CCOCC(C)(O)C5)nc(OC[C@@]56CCCN5C[C@H](F)C6)nc4c3F)c12 (stereo partly drawn) [Example 70, 4-(7-(3-Amino-8-ethynyl-7-fluoronaphthalen-1-yl)-6,8-difluoro-2-(((2R,7aS)-2-fluorotetrahydro-1H-pyrrolizin-7a(5H)-yl)methoxy)quinazolin-4-yl)-6-methyl-1,4-oxazepan-6-ol]",19,185,4
"CCc1c(F)ccc2cc(N)cc(-c3c(F)cc4c(N5CCCC6(CNC(=O)O6)C5)nc(OC[C@@]56CCCN5C[C@H](F)C6)nc4c3F)c12 (stereo partly drawn) [Example 73, 7-(7-(3-Amino-8-ehtyl-7-fluoronaphthalen-1-yl)-6,8-difluoro-2-(((2R,7aS)-2-fluorotetrahydro-1H-pyrrolizin-7a(5H)-yl)methoxy)quinazolin-4-yl)-1-oxa-3,7-diazaspiro[4.5]decan-2-one]",2,90,1
"CCc1c(F)ccc2cc(N)cc(-c3c(F)cc4c(N5CCCC6(CCO6)C5)nc(OC[C@@]56CCCN5C[C@H](F)C6)nc4c3F)c12 (stereo partly drawn) [Example 75, 4-(6,8-Difluoro-2-(((2R,7aS)-2-fluorotetrahydro-1H-pyrrolizin-7a(5H)-yl)methoxy)-4-(1-oxa-6-azaspiro[3.5]nonan-6-yl)quinazolin-7-yl)-5-ethyl-6-fluoronaphthalen-2-amine]",154,500,9

# Continued by falling IC50 [1], values first:
IC50 [1] [nM],IC50 [2] [nM],IC50 [3] [nM],Compound
117,1050,10,"CCc1c(F)ccc2cc(N)cc(-c3ccc4c(N5CCC[C@@](C)(O)C5)nc(OC[C@@]56CCCN5C[C@H](F)C6)nc4c3F)c12 [Example 74, (R)-1-(7-(3-Amino-8-ethyl-7-fluoronaphthalen-1-yl)-8-fluoro-2-(((2R,7aS)-2-fluorotetrahydro-1H-pyrrolizin-7a(5H)-yl)methoxy)quinazolin-4-yl)-3-methylpiperidin-3-ol]"
11,260,6,"C#Cc1c(F)ccc2cc(N)cc(-c3ccc4c(N5CCC[C@@](C)(O)C5)nc(OC[C@@]56CCCN5C[C@H](F)C6)nc4c3F)c12 [Example 65, (R)-1-(7-(3-Amino-8-ethynyl-7-fluoronaphthalen-1-yl)-8-fluoro-2-(((2R,7aS)-2-fluorotetrahydro-1H-pyrrolizin-7a(5H)-yl)methoxy)quinazolin-4-yl)-3-methylpiperidin-3-ol]"
10,58,5,"O=C1NCC2(CCCN(c3nc(OC[C@@]45CCCN4C[C@H](F)C5)nc4c(F)c(-c5cc(O)cc(Cl)c5C5CC5)ccc34)C2)O1 (stereo partly drawn) [Example 83, 7-(7-(3-Chloro-2-cyclopropyl-5-hydroxyphenyl)-8-fluoro-2-(((2R,7a5)-2-fluorotetrahydro-1H-pyrrolizin-7a(5H)-yl)methoxy)quinazolin-4-yl)-1-oxa-3,7-diazaspiro[4.5]decan-2-one]"
9,33,5,"Oc1cc(-c2c(F)cc3c(N4CCC[C@]5(CCO5)C4)nc(OC[C@@]45CCCN4C[C@H](F)C5)nc3c2F)c2c(F)c(F)ccc2c1 [Example 79, 4-(6,8-Difluoro-2-(((2R,7aS)-2-fluorotetrahydro-1H-pyrrolizin-7a(5H)-yl)methoxy)-4-((S)-1-oxa-6-azaspiro[3.5]nonan-6-yl)quinazolin-7-yl)-5,6-difluoronaphthalen-2-ol]"
6,29,4,"CCc1cccc2cc(O)cc(-c3c(F)cc4c(N5CCC[C@]6(CCO6)C5)nc(OC[C@@]56CCCN5C[C@H](F)C6)nc4c3F)c12 [Example 77, 4-(6,8-Difluoro-2-(((2R,7aS)-2-fluorotetrahydro-1H-pyrrolizin-7a(5H)-yl)methoxy)-4-((S)-1-oxa-6-azaspiro[3.5]nonan-6-yl)quinazolin-7-yl)-5-ethylnaphthalen-2-ol]"
5,16,3,"Oc1cc(-c2c(F)cc3c(N4CCC[C@]5(CCO5)C4)nc(OC[C@@]45CCCN4C[C@H](F)C5)nc3c2F)c2c(Cl)c(F)ccc2c1 [Example 78, 5-Chloro-4-(6,8-difluoro-2-(((2R,7aS)-2-fluorotetrahydro-1H-pyrrolizin-7a(5H)-yl)methoxy)-4-((S)-1-oxa-6-azaspiro[3.5]nonan-6-yl)quinazolin-7-yl)-6-fluoronaphthalen-2-ol]"
5,72,2,"O=C1NC[C@]2(CCCN(c3nc(OC[C@@]45CCCN4C[C@H](F)C5)nc4c(F)c(-c5cc(O)cc(Cl)c5C5CC5)ccc34)C2)O1 [Example 84, (S)-7-(7-(3-Chloro-2-cyclopropyl-5-hydroxyphenyl)-8-fluoro-2-(((2R,7aS)-2-fluorotetrahydro-1H-pyrrolizin-7a(5H)-yl)methoxy)quinazolin-4-yl)-1-oxa-3,7-diazaspiro[4.5]decan-2-one]"
